Results as given in BindingDB's records for doi:10.1021/jm9604383 (Goethe-University Frankfurt, 2021).

Tests used:
Adenosine receptor A1 = target: T1, Adenosine receptor A1 (Homo sapiens, UniProt P30542); test: Binding affinity to human A1 adenosine receptor assessed as inhibition constant
T1 sequence (P30542 whole entry): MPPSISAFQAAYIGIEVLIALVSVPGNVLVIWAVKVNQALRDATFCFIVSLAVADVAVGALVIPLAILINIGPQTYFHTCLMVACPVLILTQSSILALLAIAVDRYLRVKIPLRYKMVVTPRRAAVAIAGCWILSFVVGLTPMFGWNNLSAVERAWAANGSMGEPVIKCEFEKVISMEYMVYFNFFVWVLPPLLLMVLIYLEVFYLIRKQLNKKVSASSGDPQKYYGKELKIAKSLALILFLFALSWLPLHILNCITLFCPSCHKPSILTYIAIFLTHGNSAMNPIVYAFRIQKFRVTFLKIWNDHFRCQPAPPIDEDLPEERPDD

Adenosine receptor A2b [1] = target: T2, Adenosine receptor A2b (Homo sapiens, UniProt P29275); test: Displacement of [3H]DPCPX to human A2B adenosine receptor derived from HEK cells assessed as inhibition constant
T2 sequence (P29275 whole entry): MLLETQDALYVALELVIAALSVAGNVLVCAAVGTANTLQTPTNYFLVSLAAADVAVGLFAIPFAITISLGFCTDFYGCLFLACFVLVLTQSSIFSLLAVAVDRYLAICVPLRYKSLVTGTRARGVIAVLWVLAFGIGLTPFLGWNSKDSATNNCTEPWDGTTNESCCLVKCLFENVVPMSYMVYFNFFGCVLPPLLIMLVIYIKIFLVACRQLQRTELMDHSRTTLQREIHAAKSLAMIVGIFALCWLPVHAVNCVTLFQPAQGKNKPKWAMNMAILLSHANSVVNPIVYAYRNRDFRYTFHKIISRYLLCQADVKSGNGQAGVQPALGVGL

Adenosine receptor A3 [2] = target: T3, Adenosine receptor A3 (Homo sapiens, UniProt P0DMS8); test: Binding affinity to human A3 adenosine receptor assessed as inhibition constant
T3 sequence (P0DMS8 whole entry): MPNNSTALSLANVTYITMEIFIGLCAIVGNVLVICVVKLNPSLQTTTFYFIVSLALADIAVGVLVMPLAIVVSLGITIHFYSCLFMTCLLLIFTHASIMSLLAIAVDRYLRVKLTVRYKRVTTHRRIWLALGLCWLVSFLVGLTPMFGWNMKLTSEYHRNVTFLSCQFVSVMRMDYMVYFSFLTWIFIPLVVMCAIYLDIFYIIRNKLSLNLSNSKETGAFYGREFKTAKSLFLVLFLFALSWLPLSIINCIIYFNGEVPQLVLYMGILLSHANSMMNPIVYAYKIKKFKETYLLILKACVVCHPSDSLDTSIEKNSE

Adenosine receptor A3 [3] = target: T3, Adenosine receptor A3; test: Displacement of [1251]AB-MEC from human A3 receptor assessed as inhibition constant
Adenosine receptor A2b [4] = target: T2, Adenosine receptor A2b; test: Inhibition of human A2b adenosine receptor
[5] = target: T4, Palmitoleoyl-protein carboxylesterase NOTUM (Homo sapiens, UniProt Q6P988); test: Inhibition of human notum using OTPS as substrate incubated for 16 hrs by fluorescent based assay
T4 sequence (Q6P988 whole entry): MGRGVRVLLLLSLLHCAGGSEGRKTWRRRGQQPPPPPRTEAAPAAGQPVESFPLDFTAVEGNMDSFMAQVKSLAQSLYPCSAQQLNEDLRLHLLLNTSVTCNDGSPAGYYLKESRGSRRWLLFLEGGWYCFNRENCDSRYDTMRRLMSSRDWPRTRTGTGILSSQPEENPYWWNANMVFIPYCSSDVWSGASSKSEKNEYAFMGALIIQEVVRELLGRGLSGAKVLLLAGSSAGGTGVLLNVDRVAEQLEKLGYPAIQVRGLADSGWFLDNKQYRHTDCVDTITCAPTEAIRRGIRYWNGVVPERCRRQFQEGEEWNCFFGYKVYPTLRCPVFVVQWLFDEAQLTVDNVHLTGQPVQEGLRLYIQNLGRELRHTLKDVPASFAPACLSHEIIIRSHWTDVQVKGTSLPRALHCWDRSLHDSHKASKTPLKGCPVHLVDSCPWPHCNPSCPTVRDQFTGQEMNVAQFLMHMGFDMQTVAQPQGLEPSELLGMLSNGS

In the case of CCCn1c(=O)c2nc(-c3ccc(OCC(N)=O)cc3O)[nH]c2n(CCC)c1=O, the Ki (Adenosine receptor A1) is reported as 6.5 nM.
For CCCn1c(=O)[nH]c2nc(-c3cnn(Cc4noc(-c5ccc(Cl)cc5)n4)c3)[nH]c2c1=O [8-(1-((5-(4-chlorophenyl)-1,2,4-oxadiazol-3-yl)methyl)-1H-pyrazol-4-yl)-1-propyl-1H-purine-2,6(3H,7H)-dione], the Ki (Adenosine receptor A2b [1]) was 5.5 nM.
In the case of CCCn1c(=O)c2nc(C3CC4CC3C3OC43)[nH]c2n(CCC)c1=O (stereo not drawn) [8-(3-Oxa-tricyclo[3.2.1.0*2,4*]oct-6-yl)-1,3-dipropyl-3,7-dihydro-purine-2,6-dione], the Ki (Adenosine receptor A1) is reported as 0.95 nM.
Work on CC[C@@H]1Cn2c(c3nc(-c4cc(Cl)cc(Cl)c4Cl)nc-3n(C)c2=O)N1 yielded a Ki (Adenosine receptor A3 [2]) of 0.433 nM.
For CCCCn1c(=O)c2c(ncn2[C@@H]2O[C@H](C(=O)NC)[C@@H](O)[C@H]2O)n(CCCC)c1=O [5-(1,3-Dibutyl-2,6-dioxo-1,2,3,6-tetrahydro-purin-7-yl)-3,4-dihydroxy-tetrahydro-furan-2-carboxylic acid methylamide], the Ki (Adenosine receptor A3 [3]) was 229 nM.
With CCCn1c(=O)c2nc(-c3ccc(S(=O)(=O)NCCN(C)C)cc3)[nH]c2n(CCC)c1=O the Ki (Adenosine receptor A1) was 6.5 nM.
Work on Cn1cnc2c1c(=O)[nH]c(=O)n2C [theobromine] yielded an IC50 (Adenosine receptor A2b [4]) of 130000 nM.
Cn1c(=O)c2c(ncn2C)n(C)c1=O gave an IC50 [5] of 19000 nM.
